Laboratory results reported in patent US4336375A, “Cephalosporanic acid derivatives” (American Cyanamid Company, priority 1980, dated 1982).
Converted amounts (≈) assume the structure as drawn. Where two headings read alike, the source gives them in different places.

Legend:
Type in all cases: cell-based
[1] = system: Klebsiella pneumoniae W75-2; experiment: In vitro MIC, agar dilution, Klebsiella pneumoniae W75-2; conditions: W752; Klebsiella pneumoniae W75-2; agar dilution, 35° C., 18 hours, nutrient agar; read-out: Minimal Inhibitory Concentration
Description: (§1) The in vitro activity of representative compounds of the present invention are given in the following Table I in terms of minimal inhibitory concentration. The test used was the standard agar dilution test using a Steers multiple inocula replicator and incubating at 35° C. for 18 hours in conventional nutrient agar.

[2] = system: Pseudomonas aeruginosa 12-4-4; experiment: In vitro MIC, agar dilution, Pseudomonas aeruginosa 12-4-4; conditions: 1244; Pseudomonas aeruginosa 12-4-4; agar dilution, 35° C., 18 hours, nutrient agar; read-out: Minimal Inhibitory Concentration
Description: as §1

[3] = system: Pseudomonas aeruginosa PD05141; experiment: In vitro MIC, agar dilution, Pseudomonas aeruginosa PD05141; conditions: Pseudomonas aeruginosa PD05141; agar dilution, 35° C., 18 hours, nutrient agar; read-out: Minimal Inhibitory Concentration
Description: as §1

Proteus morganii K72 = experiment: In vitro MIC, agar dilution, Proteus morganii K72; conditions: Morganella morganii; Proteus morganii K72; agar dilution, 35° C., 18 hours, nutrient agar; read-out: Minimal Inhibitory Concentration
Description: as §1

[4] = system: Klebsiella pneumoniae MA75-1; experiment: In vitro MIC, agar dilution, Klebsiella pneumoniae MA75-1; conditions: MA751; Klebsiella pneumoniae MA75-1; agar dilution, 35° C., 18 hours, nutrient agar; read-out: Minimal Inhibitory Concentration
Description: as §1

[5] = system: Staphylococcus aureus Q74-1; experiment: In vitro MIC, agar dilution, Staphylococcus aureus Q74-1; conditions: Q741; Staphylococcus aureus Q74-1; agar dilution, 35° C., 18 hours, nutrient agar; read-out: Minimal Inhibitory Concentration
Description: as §1

[6] = system: Klebsiella pneumoniae UR76-1; experiment: In vitro MIC, agar dilution, Klebsiella pneumoniae UR76-1; conditions: UR761; Klebsiella pneumoniae UR76-1; agar dilution, 35° C., 18 hours, nutrient agar; read-out: Minimal Inhibitory Concentration
Description: as §1

Serratia marcens K77-1 = experiment: In vitro MIC, agar dilution, Serratia marcens K77-1; conditions: K771; Serratia marcens K77-1; agar dilution, 35° C., 18 hours, nutrient agar; read-out: Minimal Inhibitory Concentration
Description: as §1

[7] = system: Escherichia coli ESS22-31; experiment: In vitro MIC, agar dilution, Escherichia coli ESS22-31; conditions: read-out: Minimal Inhibitory Concentration
Description: as §1

Klebsiella pneumoniae AD = experiment: In vitro MIC, agar dilution, Klebsiella pneumoniae AD; conditions: Klebsiella pneumoniae AD; agar dilution, 35° C., 18 hours, nutrient agar; read-out: Minimal Inhibitory Concentration
Description: as §1

Escherichia coli OSU75-1 = experiment: In vitro MIC, agar dilution, Escherichia coli OSU75-1; conditions: OSU751, 35° C., 18 hours, nutrient agar, read-out: Minimal Inhibitory Concentration
Description: as §1

[8] = system: Pseudomonas aeruginosa UCS 76-13; experiment: In vitro MIC, agar dilution, Pseudomonas aeruginosa UCS 76-13; conditions: UCS7613; Pseudomonas aeruginosa UCS 76-13; agar dilution, 35° C., 18 hours, nutrient agar; read-out: Minimal Inhibitory Concentration
Description: as §1

Serratia marcens QHC77-2 = experiment: In vitro MIC, agar dilution, Serratia marcens QHC77-2; conditions: QHC772; Serratia marcens QHC77-2; agar dilution, 35° C., 18 hours, nutrient agar; read-out: Minimal Inhibitory Concentration
Description: as §1

Serratia K101 = experiment: In vitro MIC, agar dilution, Serratia K101; conditions: Serratia K101; agar dilution, 35° C., 18 hours, nutrient agar; read-out: Minimal Inhibitory Concentration
Description: as §1

Escherichia coli 311 = experiment: In vitro MIC, agar dilution, Escherichia coli 311; conditions: 35° C., 18 hours, nutrient agar, read-out: Minimal Inhibitory Concentration
Description: as §1

Proteus vulgaris N74-1 = experiment: In vitro MIC, agar dilution, Proteus vulgaris N74-1; conditions: N741, 35° C., 18 hours, nutrient agar, read-out: Minimal Inhibitory Concentration
Description: as §1

[9] = system: Klebsiella pneumoniae W75-4; experiment: In vitro MIC, agar dilution, Klebsiella pneumoniae W75-4; conditions: W754; Klebsiella pneumoniae W75-4; agar dilution, 35° C., 18 hours, nutrient agar; read-out: Minimal Inhibitory Concentration
Description: as §1

[10] = system: Pseudomonas aeruginosa G236; experiment: In vitro MIC, agar dilution, Pseudomonas aeruginosa G236; conditions: Pseudomonas aeruginosa G236; agar dilution, 35° C., 18 hours, nutrient agar; read-out: Minimal Inhibitory Concentration
Description: as §1

Proteus rettgeri N76-1 = experiment: In vitro MIC, agar dilution, Proteus rettgeri N76-1; conditions: Providencia rettgeri, N761; Proteus rettgeri N76-1; agar dilution, 35° C., 18 hours, nutrient agar; read-out: Minimal Inhibitory Concentration
Description: as §1

[11] = system: Enterobacter cloacae MA75-1; experiment: In vitro MIC, agar dilution, Enterobacter cloacae MA75-1; conditions: MA751; Enterobacter cloacae MA75-1; agar dilution, 35° C., 18 hours, nutrient agar; read-out: Minimal Inhibitory Concentration
Description: as §1

[12] = system: Enterobacter aerogenes UR76-3; experiment: In vitro MIC, agar dilution, Enterobacter aerogenes UR76-3; conditions: Klebsiella aerogenes, UR763; Enterobacter aerogenes UR76-3; agar dilution, 35° C., 18 hours, nutrient agar; read-out: Minimal Inhibitory Concentration
Description: as §1

Escherichia coli W75-1 = experiment: In vitro MIC, agar dilution, Escherichia coli W75-1; conditions: W751, 35° C., 18 hours, nutrient agar, read-out: Minimal Inhibitory Concentration
Description: as §1

[13] = system: Staphylococcus aureus Q74-6; experiment: In vitro MIC, agar dilution, Staphylococcus aureus Q74-6; conditions: Q746; Staphylococcus aureus Q74-6; agar dilution, 35° C., 18 hours, nutrient agar; read-out: Minimal Inhibitory Concentration
Description: as §1

Enterococcus SM77-15 = experiment: In vitro MIC, agar dilution, Enterococcus SM77-15; conditions: SM7715; Enterococcus SM77-15; agar dilution, 35° C., 18 hours, nutrient agar; read-out: Minimal Inhibitory Concentration
Description: as §1

[14] = system: Enterobacter cloacae OSU75-2; experiment: In vitro MIC, agar dilution, Enterobacter cloacae OSU75-2; conditions: OSU752; Enterobacter cloacae OSU75-2; agar dilution, 35° C., 18 hours, nutrient agar; read-out: Minimal Inhibitory Concentration
Description: as §1

[15] = Escherichia coli, ESS2231, 18 h

## CCN1CCN(C(=O)NC(C(=O)NC2C(=O)N3C(C(=O)O)=C(CSc4nnc(-n5nc(C)cc5C)n4N)CS[C@H]23)c2ccc(O)cc2)C(=O)C1=O (stereo partly drawn) [Compound VIII, 7-[2-(4-Ethyl-2,3-dioxo-1-piperazinecarboxamido)-2-(p-hydroxyphenyl)acetamido]-3-[4-amino-5-(3,5-dimethyl-1-pyrazolyl)-1,2,4-triazol-3-ylthiomethyl]-3-cephem-4-carboxylic acid]
[1]
  MIC: 4 µg/mL (≈ 5.41 µM)
[2]
  MIC: 32 µg/mL (≈ 43.3 µM)
[3]
  MIC: > 128 µg/mL
Proteus morganii K72
  MIC: 32 µg/mL (≈ 43.3 µM)
[4]
  MIC: 2 µg/mL (≈ 2.7 µM)
[5]
  MIC: 4 µg/mL (≈ 5.41 µM)
[6]
  MIC: 32 µg/mL (≈ 43.3 µM)
Serratia marcens K77-1
  MIC: 128 µg/mL (≈ 173 µM)
[7]; ESS2231, Escherichia coli ESS22-31, agar dilution, 35° C., 18 hours, nutrient agar
  MIC: ≤ 0.12 µg/mL
Klebsiella pneumoniae AD
  MIC: 2 µg/mL (≈ 2.7 µM)
Escherichia coli OSU75-1
  MIC: 4 µg/mL (≈ 5.41 µM)
[8]
  MIC: > 128 µg/mL
Serratia marcens QHC77-2
  MIC: > 128 µg/mL
Serratia K101
  MIC: 64 µg/mL (≈ 86.5 µM)
Escherichia coli 311
  MIC: 2 µg/mL (≈ 2.7 µM)
Proteus vulgaris N74-1
  MIC: 128 µg/mL (≈ 173 µM)
[9]
  MIC: 32 µg/mL (≈ 43.3 µM)
[10]
  MIC: 128 µg/mL (≈ 173 µM)
Proteus rettgeri N76-1
  MIC: 16 µg/mL (≈ 21.6 µM)
[11]
  MIC: > 128 µg/mL
[12]
  MIC: 1 µg/mL (≈ 1.35 µM)
Escherichia coli W75-1
  MIC: 4 µg/mL (≈ 5.41 µM)
[13]
  MIC: 8 µg/mL (≈ 10.8 µM)
Enterococcus SM77-15
  MIC: 128 µg/mL (≈ 173 µM)
[14]
  MIC: 128 µg/mL (≈ 173 µM)

## CC(=O)OCC1=C(C(=O)O)N2C(=O)[C@@H](NC(=O)[C@H](N)c3ccccc3)[C@H]2SC1 [Compound XI, Cephaloglycin, reference compound]
[1]
  MIC: 2 µg/mL (≈ 4.93 µM)
[2]
  MIC: > 128 µg/mL
[3]
  MIC: > 128 µg/mL
Proteus morganii K72
  MIC: > 128 µg/mL
[4]
  MIC: 1 µg/mL (≈ 2.47 µM)
[5]
  MIC: 1 µg/mL (≈ 2.47 µM)
[6]
  MIC: 16 µg/mL (≈ 39.5 µM)
Serratia marcens K77-1
  MIC: > 128 µg/mL
[7]; [15]
  MIC: 0.12 µg/mL (≈ 0.296 µM)
Klebsiella pneumoniae AD
  MIC: 0.5 µg/mL (≈ 1.23 µM)
Escherichia coli OSU75-1
  MIC: 2 µg/mL (≈ 4.93 µM)
[8]
  MIC: > 128 µg/mL
Serratia marcens QHC77-2
  MIC: > 128 µg/mL
Serratia K101
  MIC: > 128 µg/mL
Escherichia coli 311
  MIC: 2 µg/mL (≈ 4.93 µM)
Proteus vulgaris N74-1
  MIC: > 128 µg/mL
[9]
  MIC: 8 µg/mL (≈ 19.7 µM)
[10]
  MIC: > 128 µg/mL
Proteus rettgeri N76-1
  MIC: > 128 µg/mL
[11]
  MIC: > 128 µg/mL
[12]
  MIC: 2 µg/mL (≈ 4.93 µM)
Escherichia coli W75-1
  MIC: 2 µg/mL (≈ 4.93 µM)
[13]
  MIC: 0.12 µg/mL (≈ 0.296 µM)
Enterococcus SM77-15
  MIC: 64 µg/mL (≈ 158 µM)
[14]
  MIC: > 128 µg/mL

## Cc1nnc(SCC2=C(C(=O)O)N3C(=O)[C@@H](NC(=O)Cn4cnnn4)[C@H]3SC2)s1 [Compound XII, Cefazolin, reference compound]
[1]
  MIC: 1 µg/mL (≈ 2.2 µM)
[2]
  MIC: > 128 µg/mL
[3]
  MIC: > 128 µg/mL
Proteus morganii K72
  MIC: > 128 µg/mL
[4]
  MIC: 1 µg/mL (≈ 2.2 µM)
[5]
  MIC: 0.12 µg/mL (≈ 0.264 µM)
[6]
  MIC: 64 µg/mL (≈ 141 µM)
Serratia marcens K77-1
  MIC: > 128 µg/mL
[7]; [15]
  MIC: 0.25 µg/mL (≈ 0.55 µM)
Klebsiella pneumoniae AD
  MIC: 0.5 µg/mL (≈ 1.1 µM)
Escherichia coli OSU75-1
  MIC: 1 µg/mL (≈ 2.2 µM)
[8]
  MIC: > 128 µg/mL
Serratia marcens QHC77-2
  MIC: > 128 µg/mL
Serratia K101
  MIC: > 128 µg/mL
Escherichia coli 311
  MIC: 0.5 µg/mL (≈ 1.1 µM)
Proteus vulgaris N74-1
  MIC: > 128 µg/mL
[9]
  MIC: 8 µg/mL (≈ 17.6 µM)
[10]
  MIC: > 128 µg/mL
Proteus rettgeri N76-1
  MIC: > 128 µg/mL
[11]
  MIC: > 128 µg/mL
[12]
  MIC: 2 µg/mL (≈ 4.4 µM)
Escherichia coli W75-1
  MIC: 1 µg/mL (≈ 2.2 µM)
[13]
  MIC: ≤ 0.06 µg/mL
Enterococcus SM77-15
  MIC: 16 µg/mL (≈ 35.2 µM)
[14]
  MIC: > 128 µg/mL
